Entries after “also recorded” stand apart in the source; their conditions may differ.
How the values were obtained:
Wistar rats [1] = assay: Liver histology (H&E, red oil ORO, Sirius red) in rats on high fat/high cholesterol diet with or without DDA; assay type: in vivo
Source text: (§1) Animal Studies. All in vivo studies used Wistar rats that were kept for 9 weeks on a high fat/high cholesterol diet. The animals were then separated into two groups, a control group that continued the high fat/high cholesterol diet with regular water, whereas the treatment group continued the high fat/high cholesterol diet with water containing DDA (dodecanedioic acid) in an amount of 1% of the caloric intake. After all animals were separated in the respective test groups, body weights were recorded, and a glucose challenge test administered. […] Such effect is particularly unexpected as the quantity of DDA in the food was well below any quantity that was reasonably expected.
While not wishing to be bound by any specific theory or hypothesis, the inventors contemplate that the DDA at the low levels inhibits the trans-differentiation of hepatic stellate cells to myofibroblasts that produce extracellular matrix proteins (including collagen), likely by protecting them from damage due to reactive oxygen species (ROS).

PGC-1α = PGC-1α protein levels in liver cells (marker for mitochondrial biogenesis); assay type: cell-based; conditions: AML-12 liver cells
Source text: (§2) To that end, the inventors used endothelial cells (EOMA cells) and liver cells (AML-12 cells) in vitro and quantified various markers in response to exposure of the cells to environmental challenge in the presence and absence of DDA at low concentrations. Unless indicated otherwise, the DDA concentration in the in vitro experiments was 5 mcg per microliter. More specifically, the inventors measured p-H2AX protein levels as a marker for DNA damage, PGC-1α protein levels as a marker for mitochondrial biogenesis, NAMPT enzyme levels as a marker for potential for NAD+ production, and total antioxidant capacity as a marker of cellular health. In addition, the inventors also measured global SIRT activity as a gauge of activity for all SIRT enzymes, and in particular SIRT1 enzyme levels as markers for autophagy and various beneficial processes associated with a caloric restricted diet, and SIRT3 levels as markers for mitochondrial function and longevity.
The inventors also evaluated activity of DDA on energy metabolism, and particularly on mitochondrial health and/or mitochondrial biogenesis. The protein followed was PGC-1α, a known marker for mitochondrial biogenesis, and exemplary results are depicted in FIG. 7. […] Such finding is not entirely unexpected as PGC-1α is a transcriptional co-activator and as such tightly regulated.

NAMPT = NAMPT enzyme levels in liver cells; assay type: cell-based; conditions: AML-12 liver cells
Source text: as §2
To evaluate the effect of DDDA on energy metabolism, and particularly on NAD+ synthesis, the inventors also tested the effect of DDDA on NAMPT in liver cells.

Wistar rats [2] = assay: Glucose challenge test and body weight in rats on high fat/high cholesterol diet, water with DDA at 1% of caloric intake; assay type: in vivo
Source text: as §1

[3] = tested on: human primary hepatocytes; assay: Nile red staining of lipid droplets; assay type: cell-based; conditions: C12 1% with palmitic acid 0.4 mM, vs palmitic acid alone, listed as C12
Protocol: Nile Red: Cells were cultured for 24 hours in DMEM with 10% FBS. Prior stimulation, cells were incubated in serum free DMEM overnight. […] After the stimulation, cells were stained with Nile Red (100 ng/ml) for 45 minutes. Stained cells were used for immunofluorescence to quantify the deposition of lipid droplets. Nuclear staining was performed with DAPI and images of lipid droplets were taken using confocal microscope Nikon A1 RHD25 and NIS-Elements imaging software was used to analyze images.
C12 decrease de novo lipogenesis and an increase in fatty acid oxidation in vitro and in vivo: To test the hypothesis that C12 could affect de novo lipogenesis and fatty acid beta-oxidation, human primary hepatocytes were stimulated with palmitic acids (0.4 mM) in the presence or absence of C12 1% (v/w). […] Similar results were also observed in our in vivo experiments. […] Data from in vivo study 1 and 2 were pooled together.

[4] = 24 hours, pattern relative to 6 hours

O=C(O)CCCCCCCCCCC(=O)O [DDDA, dodecanedioic acid]
liver tissue morphology under H&E stain (Wistar rats [1]; high fat/high cholesterol diet with DDA vs without): significantly closer to normal liver histology
fatty deposits in liver tissue, red oil (ORO) stain (Wistar rats [1]; high fat/high cholesterol diet with low quantities of DDA): normal or near-normal microscopic appearance
fibrosis (Sirius red, hepatic collagen): rats without DDA compared to rats with DDA (Wistar rats [1]; high fat/high cholesterol diet, DDA at low concentrations): significantly increased fibrosis as compared to those rats where the diet included DDA at low concentrations
hepatoprotective effect (histopathology, overall) (Wistar rats [1]; low concentration of DDA in high fat/high cholesterol diet): substantial hepatoprotective effect
PGC-1α levels (PGC-1α; 6 hours, p=0.001): increased PGC1α levels
PGC-1α levels (PGC-1α; [4]): paradoxically reversed
NAMPT enzyme levels (NAMPT; 6 hours, p=0.001): significantly increased
NAMPT enzyme levels (NAMPT; [4]): paradoxically reversed
AUC blood glucose in glucose challenge (Wistar rats [2]): significantly reduced
blood glucose spike in glucose challenge (Wistar rats [2]): significantly blunted
deposition of lipid droplets (Nile red) [3]: decreased deposition of lipid droplets; also recorded: reduces lipid droplets accumulation
